Each structure is given as a SMILES string.

The term melting point denotes the temperature, or range, at which the solid turns liquid. Take `O=S1N=C(NCCCOc2cccc(CN3CCCCC3)c2)C(NCc2cccnc2)=N1` (stereo not drawn): the melting point is 140 to 143 °C.

With `Cc1cn(-c2ccc(C(=N)N)cc2)c(=O)n1-c1ccc(CCC(=O)OC(C)C)cc1`, the melting point is 246 to 249 °C.

Take `Cc1cccc(Cl)c1CO`: the melting point was in the range of 83 to 86 °C.

Molecule `CC1=Nc2ccccc2CC(c2cccnc2)N1C` (stereo not drawn) registered a melting point of 145 to 148 °C.

With `Cn1c(=O)c(-c2ccc(Cl)cc2Cl)cc2c3cc(-c4nc(NS(C)(=O)=O)no4)ccc3n(C)c21`, the melting point was 263 to 266 °C.

For `CCC(O)(CC)c1cc(C)c(-c2cccc(OCc3ccc(CO)c(CO)c3)c2C)c(C)c1`, the melting point fell in the range of 105 to 107 °C.

Consider `CCOC(=O)NC1CCCCn2c1nc(-c1ccncn1)c(Br)c2=O` (racemic), for which the melting point lay within 72 to 74 °C.

In turn, `COC(=O)Nc1ccccc1C(=O)Nc1nnn[nH]1` displayed a melting point of 236 to 237 °C.

Take `CCc1ccc2c(c1)Cc1cc(C(C)=O)ccc1-2`: the melting point fell in the range of 120 to 122 °C.

`Nc1cc(=O)nc(Nc2ccc(F)cc2)n1-c1ccccc1`: the melting point lay in the range of 225 to 227 °C.

`CC(C)OC(=O)C=Cc1cc(N2C(=O)CC(C(F)(F)F)N(C)C2=O)ccc1Cl` (stereo not drawn) yielded a melting point of 200 to 202 °C.

The molecule `Nc1ncnc2c1ncn2Cc1oc2ccccc2c(=O)c1-c1ccccc1` yielded a melting point of 173 to 175 °C.

In turn, `COc1cc(OC)nc(NC(=O)NS(=O)(=O)Cc2ccccc2C(=O)N(C)C)n1` came in with a melting point of 141 to 143 °C.

Take `CC(=O)N(CCCC(=NNC(N)=S)c1ccc(F)cc1)C(C)C`: the melting point lay within 155 to 157 °C.

As to `C=C(CC)C(=O)c1ccc(OCCCC(=O)O)c(Cl)c1Cl`, the melting point was in the range of 87 to 89 °C.

Molecule `Cc1cccc(C2=C(c3ccc(F)c(-c4cn[nH]c4)c3)NN(C(C)C)C2)n1` registered a melting point of 129 to 136 °C.

Turning to `O=C(Nc1ccc2c(c1)NCCC2)c1cc2cc(C(F)(F)F)ccc2n1Cc1cccc(F)c1`, the melting point was 203 to 204 °C.

For the molecule `COC(=O)c1ccc2c(c1)CCC(CCN1CCC(c3ccccc3)CC1)C2=O` (stereo not drawn), the melting point fell in the range of 110 to 112 °C.

`O=c1nc(-c2ccccn2)sc2cc(Cl)ccc12` came in with a melting point of 245 to 246 °C.

With `CCCCc1nc2c(N)nc3cccnc3c2n1CCCCNC(=O)Cn1cc(C)c(O)nc1=O`, the melting point was 242 to 244 °C.

In the case of `O=C1Nc2ccccc2CCCC1N1C(=O)c2ccccc2C1=O` (stereo not drawn), the melting point was in the range of 229 to 230 °C.

Regarding `N#CCCNC(=O)C1=CC(CF)(CF)Oc2ccc(Cl)cc21`, the melting point was in the range of 134 to 136 °C.

With `NC(=O)c1nc(N)nc(N)c1-c1ccc(Cl)cc1Cl`, the melting point was in the range of 298 to 299 °C.

As for `CCCCOc1cc(/C=C(\OCC)C(=O)O)ccc1OCCc1ccc(OS(=O)(=O)CCCC)c(OC)c1`, the melting point turned out to be 94 °C.

On to `Cc1cc(=O)c(-c2ccc(F)cc2)c(C)[nH]1`, for which the melting point was greater than 250 °C.

On to `CN(C)c1nc(N(C)Cc2ccccc2O)nc(N(C)Cc2ccccc2O)n1`, for which the melting point fell in the range of 156 to 157 °C.

As for `c1ccc(NCc2nccc(-c3ccc(-c4ccc(N(c5ccccc5)c5ccccc5)cc4)cc3)n2)cc1`, the melting point fell in the range of 200 to 201 °C.

In turn, `CC(C)=CCC[C@H](C)CC(=NO)C(C[C@@H](C)CCC=C(C)C)=NO` showed a melting point of 131 to 132 °C.

For the molecule `CCCCOc1ccc(CO)c(Oc2ncc(C(F)(F)F)cc2Cl)c1`, the melting point fell in the range of 77.8 to 79.2 °C.

Molecule `Cc1cc(C)c2c(c1O)C(=O)C(c1ccccc1)C2` (stereo not drawn) had a melting point of 90.5 to 91 °C.

The molecule `O=C(O)CCCCCNC(=O)OCC1c2ccccc2-c2ccccc21` yielded a melting point of 116 °C.

`O=Cc1cc(O)c2c(c1O)CCCC2` registered a melting point of 145 °C.

`COC(=O)Cc1ccccc1OCc1cc(OCCc2nc(-c3ccccc3)sc2C)no1` registered a melting point of 80 to 81 °C.

`O=S(=O)(Cc1ccc(O)cc1)Nc1ncc(-c2ccc(O)cc2)nc1Cc1ccccc1`: the melting point lay in the range of 194 to 196 °C.

For the molecule `c1ccc(-c2nc(COc3cccc(Cc4nnn[nH]4)c3)cs2)cc1`, the melting point was in the range of 160 to 161 °C.

Molecule `CC1N=C2N(Cc3ccc(Cl)cc3)c3[nH]cnc3C(=O)N2C1C` (stereo not drawn) registered a melting point of 252 to 254 °C.

The molecule `Cc1ccc(OCc2nc(-c3ccccc3)oc2C)cn1` displayed a melting point of 103 to 104 °C.

Turning to `Nc1cccc2c1NC(=O)C2`, the melting point was in the range of 248 to 251 °C.

In turn, `CC(C)c1ccc2nc[nH]c(=O)c2c1` yielded a melting point of 147 °C.

As for `N#Cc1cc(CC(=O)O)cc2c1NC(C(F)(F)F)CC2` (stereo not drawn), the melting point lay within 148 to 149 °C.

`COc1c(N2CCC(O)C(CO)C2)c(F)cc2c(=O)c(C(=O)O)cn(C3CC3)c12` (stereo not drawn) came in with a melting point of 115 to 125 °C.

As to `OC(Cc1ccccc1)Cc1ccccc1`, the melting point lay in the range of 107 to 109 °C.

For `CCCCc1nc(Cl)c(CC#N)n1Cc1ccc(C#N)cc1`, the melting point was 110 to 113 °C.

Take `CCCCCCCCCCc1cc2c(s1)-n1c(C)nnc1CN=C2c1ccccc1OC`: the melting point lay in the range of 90 to 92 °C.

Take `CN1C(=O)CC2(CNC(=O)C2)C1=O` (stereo not drawn): the melting point was 201 to 204 °C.

Consider `NS(=O)(=O)OCCOc1ccccc1`, for which the melting point fell in the range of 89 to 91 °C.

Consider `O=C(c1ccncc1)[N+]1([O-])CCC(=C2c3ccccc3CCn3ccnc32)CC1` (stereo not drawn), for which the melting point lay in the range of 155 to 159 °C.

Consider `COc1ccc(CC2N(C)CCC(OC)(OC)C2(C)C)cc1` (stereo not drawn), for which the melting point was 91 to 92.5 °C.

Molecule `Cc1ccnc(NC(=O)C2=C(O)c3ccc4ccccc4c3S(=O)(=O)N2C)c1` had a melting point of 221 °C.

For the molecule `CCc1c(C(=O)C(N)=O)c2c(OCC(=O)O)cccc2n1Cc1ccccc1`, the melting point is 230 to 234 °C.

Consider `COC(=O)c1ccccc1S(=O)(=O)NC(=O)Nc1nc(C)cc(CF)n1`, for which the melting point was in the range of 181 to 186 °C.

As for `CC(Oc1ncn(-c2cccc(C(F)(F)F)c2)n1)C(=O)O` (stereo not drawn), the melting point lay in the range of 206 to 208 °C.

Turning to `O=CNn1cnc2cc(C(F)(F)F)ccc21`, the melting point lay in the range of 209 to 210 °C.

Turning to `COC(=O)C(OC(=O)c1ccc(C(=O)O)cc1)C(=O)OC`, the melting point lay within 104 to 107 °C.

Consider `CC(=O)NC(=Cc1ccc(F)cc1)C(=O)OCCC(F)=C(F)F`, for which the melting point stood at 116 °C.

With `CCC(COC)n1cc(Cl)nc(N2CCc3cc(OC)c(F)c(Cl)c32)c1=O` (stereo not drawn), the melting point lay in the range of 140 to 142 °C.

`Cc1c(-c2ccc(Cl)cc2)[nH]c2ccc(OCc3ccccc3)cc12` gave a melting point of 134 to 136 °C.

For `CCOC(=O)C1CCn2c1cc(C)c2C(=O)c1ccc2n1CCS2` (stereo not drawn), the melting point is 146 to 148 °C.

Regarding `Nn1cc(Br)c(=O)[nH]c1=O`, the melting point lay in the range of 214 to 215 °C.

Consider `NC(=O)C(Oc1ccc(Cl)cc1)(C(F)(F)F)C(F)(F)F`, for which the melting point fell in the range of 77 to 79 °C.

Take `CC(C)n1nnnc1CCCn1ccc2cc(NC(=O)c3nc4ccc(Cl)cc4n3Cc3ccccc3)ccc21`: the melting point was in the range of 190 to 191 °C.

The molecule `COc1cc(COc2nn(-c3ccccc3)cc2CC#N)ccc1OCc1nc(-c2ccccc2)oc1C` displayed a melting point of 137 to 138 °C.

Regarding `Cc1c(CO)ncnc1N(C)C`, the melting point was 46 to 48 °C.

Turning to `CCc1cc(C(=O)c2ccccc2Cl)c(-n2cnnc2CNC(=O)c2ccccc2)s1`, the melting point lay in the range of 140 to 142 °C.

`Fc1ccc(C(=C(c2ccccc2)c2ccc(OCCBr)cc2)C(F)(F)F)cc1` displayed a melting point of 115 to 118 °C.

Consider `CC#CCOc1ccc(S(=O)(=O)C(C(=O)NO)c2cccc(Cl)c2)cc1` (stereo not drawn), for which the melting point is 50 °C.

The molecule `CCCN1Cc2c(ncnc2C2C(=O)Nc3ccc(C#N)cc32)N1` (stereo not drawn) displayed a melting point greater than 300 °C.

Take `CCCCCC(=O)n1c(N)nc2ccccc21`: the melting point was 200 °C.

Turning to `O=C(Nc1nc(-c2ccco2)c(-c2ccc(=O)n(Cc3ccccc3)c2)s1)c1ccncc1`, the melting point was in the range of 215 to 218 °C.

`O=C(N[C@H]1CC[C@H](CCN2CCN(c3nccc4c3OCC4)CC2)CC1)c1ccc(-n2cccn2)cc1`: the melting point was found to be 226 °C.

In turn, `CC(C)(C)C(=O)OCCCCCCOc1ccc(Nc2ccccc2)cc1` came in with a melting point of 64 to 65 °C.

In turn, `Cc1ccc(S(=O)(=O)OC2CCC(C)C2)cc1` (stereo not drawn) yielded a melting point of less than 30 °C.

`O=c1[nH][nH]c(=O)c2c(O)c3ccccc3nc12` yielded a melting point greater than 400 °C.

The molecule `Cc1ccccc1C1(n2ccnc2)c2ccccc2-c2sccc21` (stereo not drawn) returned a melting point of 75 °C.

As for `Cc1nc(CN(C)C(=O)N[C@H](C(=O)N[C@@H](Cc2ccccc2)[C@@H](O)C[C@H](Cc2ccccc2)NC(=O)OCc2cccnc2)C(C)C)cs1`, the melting point fell in the range of 66 to 69 °C.

Take `COc1cc(Nc2c(C#N)cnc3cc(OCCN4CCN(C)CC4)c(OC)cc23)c(Cl)cc1Cl`: the melting point lay in the range of 165 to 167 °C.

Molecule `CC(C)(C)NS(=O)(=O)c1ccc2c(c1)C=C(C(=O)O)C(C(F)(F)F)O2` (stereo not drawn) came in with a melting point of 229 to 234 °C.

`COc1cc2ncnc(N3CCN(C(=S)Nc4ccc(Cc5ccncc5)cc4)CC3)c2cc1OC` registered a melting point of 198 to 200 °C.

In turn, `COc1cccc(OC)c1N(COC(C)C)C(=O)CCl` registered a melting point of 85 to 90 °C.

Molecule `N[C@H]1CC[C@H](Nc2cc(C(F)(F)F)nc3c(C(F)(F)F)cccc23)CC1` registered a melting point of 173 °C.

`C=CCSc1nc(N)n(-c2nnc(-c3ccccc3O)s2)n1` registered a melting point of 222 to 223 °C.

Take `COc1cc2cccnc2c(N2CCN([C@H]3CC[C@@H](c4cn(C)c5ccc(C#N)cc54)CC3)CC2)n1`: the melting point lay in the range of 230 to 233 °C.

`O=C(CCl)NC1(c2ccccc2Cl)C(=O)Nc2ccc(Cl)cc21` (stereo not drawn): the melting point stood at 230 °C.

`N=C(NN=Cc1ccc(OC(F)C(F)(F)F)cc1)NN=Cc1ccc(OC(F)C(F)(F)F)cc1` (stereo not drawn) yielded a melting point of 125 to 130 °C.

In the case of `COc1cc(Nc2nccc(-c3cccc4ccccc34)n2)cc(OC)c1OC`, the melting point lay in the range of 130 to 133 °C.

For the molecule `O=C1Nc2ccccc2CO1`, the melting point is 118 to 119 °C.

Regarding `Cc1cncn1Cc1ccc2ccc3c(c2c1)C(C)(C)C(=O)O3`, the melting point lay in the range of 88 to 91 °C.

Regarding `CCOc1cc(OCc2cccc(OCc3nc(-c4ccccc4)oc3C)c2)ccc1CCC(=O)O`, the melting point is 122 to 123 °C.

For the origin of these results see a melting point compilation (Tetko et al.; mined from patent text by program, amines drawn as free bases though some values may be those of a salt).
